pIC50: −log10 of the molar value. The source made the active and inactive calls. The rule behind the calls is not given here. Numbered stars: 1 amine (or outer) side, 2 acyl side, 3 side chain; on linkers, the order of the positions; unused ones are H or OH. Square brackets hold non-standard residues; d marks the D form. Peptide text beside a SMILES is read from it. ξ: configuration not given here. ξβ3hGly(undecyl) = CCCCCCCCCCCC(CC(=O)[*:2])N[*:1]
Target: Ubiquitin carboxyl-terminal hydrolase isozyme L1 (Homo sapiens) (UniProt P09936)
Sequence (P09936 whole entry, looked up): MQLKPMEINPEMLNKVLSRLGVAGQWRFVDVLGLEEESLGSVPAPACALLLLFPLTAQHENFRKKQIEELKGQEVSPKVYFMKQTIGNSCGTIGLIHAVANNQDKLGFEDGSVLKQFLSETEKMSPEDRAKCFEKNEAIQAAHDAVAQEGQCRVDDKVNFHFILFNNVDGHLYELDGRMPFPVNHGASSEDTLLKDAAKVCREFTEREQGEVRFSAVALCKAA
Assay: biochemical concentration-response of UCH-L1 DUB inhibitors, hit verification (AID 1645867)
Details: recombinant UCHL1 deubiquitinase activity assay

Structure (SMILES) | IC50 | pIC50
Cc1ccc(NC(=O)Nc2ccc(C)n(CC(=O)Nc3ccc(C)cc3C)c2=O)cc1 | > 25 µM (inactive) | –
Cn1c(CNS(=O)(=O)c2ccc(Br)cc2)nnc1SCc1ccc(Cl)c(Cl)c1 | > 25 µM (inactive) | –
CCOc1ccc2c(c1)c(=O)c(C(=O)c1ccccc1)cn2CC(=O)Nc1ccccc1 | > 25 µM (inactive) | –
O=C(NCc1ccc(Br)cc1)c1cc(-c2cccnc2)n[nH]1 | > 25 µM (inactive) | –
COc1ccc(C(=O)COC(=O)c2ccccc2NS(=O)(=O)c2ccc(O)c([N+](=O)[O-])c2)cc1 | > 25 µM (inactive) | –
CCC(C)N1CNc2c(c(=O)[nH]c(=O)n2Cc2ccco2)C1 (stereo not drawn) | > 25 µM (inactive) | –
O=C(Nc1ccc(-c2cn3ccsc3n2)cc1)c1ccc(Cl)c([N+](=O)[O-])c1 | > 25 µM (inactive) | –
Cc1ccc(Cn2c(C(=O)O)c(CNCc3cccnc3)c3ccccc32)cc1 | > 25 µM (inactive) | –
COC(=O)Nc1cccn(Cc2c(Cl)cccc2Cl)c1=O | > 25 µM (inactive) | –
O=C(Cc1c[nH]c2ccccc12)N1CCc2cc(-c3ccno3)ccc21 | > 25 µM (inactive) | –
Nc1ccc(F)c(NS(=O)(=O)c2ccccc2)c1 | > 25 µM (inactive) | –
Cc1ccc(C)c(Cn2cnc3c(nnn3-c3cccc(F)c3)c2=O)c1 | > 25 µM (inactive) | –
Cc1ccc(NC(=O)Nc2ccc(C)n(CC(=O)Nc3ccc(C)c(C)c3)c2=O)cc1 | > 25 µM (inactive) | –
Cc1cc2nc(N3CCN(C(=O)c4ccccc4)CC3)c3ccccc3n2n1 | > 25 µM (inactive) | –
CC[C@@H](C(=O)[C@@H](C)[C@@H](O)[C@H](C)CCc1ccc(C)c(O)c1C(=O)O)[C@@H]1O[C@](CC)([C@H]2CC[C@](O)(CC)[C@H](C)O2)C[C@@H]1C | > 25 µM (inactive) | –
O=C1NC[C@@H](CCC(=O)N2CCCC2)N2C[C@@H](NCc3ccccc3)C[C@@H]12 | > 25 µM (inactive) | –
C/C=C/C=C/[C@@H]1Cc2cc(O)cc(O)c2O1 | – | 4.96
Cc1ccc(NC(=O)Cn2cc(C(=O)c3ccccc3)c(=O)c3cc(C)ccc32)cc1 | > 25 µM (inactive) | –
Oc1cccc2c(-c3ccc(O)c4c(O)cccc34)ccc(O)c12 | – | 4.97

Structure (SMILES) | IC50 | pIC50
Cc1ccc(-n2c(=O)[nH]c3c(C(N)=O)nc(-c4ccc(OCc5ccccc5)cc4)nc32)cc1 | > 25 µM (inactive) | –
Fc1cc(F)c2[nH]cc(-c3nnnn3-c3ccc4ccccc4c3)c2c1 | > 25 µM (inactive) | –
Cc1nn(-c2ccc(F)cc2)c(C)c1S(=O)(=O)N1CCN(c2ccccn2)CC1 | > 25 µM (inactive) | –
COCCNC(=O)c1cc(-c2ccn(C3CCCC3)n2)n2ccccc12 | > 25 µM (inactive) | –
CCC(C(=O)C(C)C(O)C(C)CCc1ccc(C)c(O)c1C(=O)O)C1OC(CC)(C2CCC(O)(CC)C(C)O2)CC1C (stereo not drawn) | > 25 µM (inactive) | –
CCc1ccccc1NC(=O)Cn1c(SCc2ccc(F)cc2)nc2cccnc21 | > 25 µM (inactive) | –
O=c1[nH]oc(O)c1-c1ncc(C(F)(F)F)cc1Cl | > 25 µM (inactive) | –
O=C1CC(c2nc3ccccc3n2CCOc2ccccc2)CN1Cc1ccccc1 (stereo not drawn) | > 25 µM (inactive) | –
CC(Oc1ccc(F)cc1)c1nnc(C2(c3ccc(F)cc3)CCOCC2)o1 (stereo not drawn) | > 25 µM (inactive) | –
CCCn1c(=O)c(-c2ccc(C(=O)NCc3ccc(OC)cc3)cc2)nc2cccnc21 | > 25 µM (inactive) | –
Cc1ccccc1NC(=O)Cc1csc2nc(-c3ccc(F)cc3)cn12 | > 25 µM (inactive) | –
Cc1cc(OCC(=O)Nc2ccc3c(c2)NC(=O)CO3)ccc1Cl | > 25 µM (inactive) | –
COc1ccc(C(=O)Nc2nnc(S(=O)(=O)N3CCCc4ccccc43)s2)cc1OC | > 25 µM (inactive) | –
O=C(COc1ccc(N2CC(C(=O)NCc3ccccc3)CC2=O)cc1)Nc1ccccc1Cl (stereo not drawn) | > 25 µM (inactive) | –
COc1ccccc1-c1nc(-c2cn(-c3ccc(F)cc3)nn2)no1 | > 25 µM (inactive) | –
O=c1cc(Cc2ccccc2)nc2c(-c3ccccc3)c(COc3ccccc3)[nH]n12 | > 25 µM (inactive) | –
CN(c1ccccc1)S(=O)(=O)c1ccc(C(=O)Nc2cccc(C#N)c2)cc1 | > 25 µM (inactive) | –
O=C(CSc1ccc(-c2cccc([N+](=O)[O-])c2)nn1)Nc1cccc(F)c1 | > 25 µM (inactive) | –
COc1ccccc1N/C=C/c1onc(-c2c(F)cccc2Cl)c1C#N | > 25 µM (inactive) | –

Structure (SMILES) | IC50 | pIC50
Cc1ccc(C2CC(=O)c3cnc(NCC4CCCO4)nc3C2)cc1 (stereo not drawn) | > 25 µM (inactive) | –
Cc1ccc(S(=O)(=O)N2CCCCC2)cc1NC(=O)c1ccc(C#N)cc1 | > 25 µM (inactive) | –
CCC(=O)N1CCCC1c1nc2ccccc2n1Cc1ccc(F)cc1 (stereo not drawn) | > 25 µM (inactive) | –
O=c1[nH]cccc1NS(=O)(=O)c1ccc(F)cc1 | > 25 µM (inactive) | –
CC(C)(NC(=O)C1CCCCC1)c1nc2c(c(C(N)=O)n1)OCCO2 | > 25 µM (inactive) | –
O=C(c1cccc2ncccc12)N1CCN(c2ccnc3cc(Cl)ccc23)CC1 | > 25 µM (inactive) | –
Cc1cccc(NC(=O)N2C[C@@H]3c4nccn4-c4ccccc4[C@@H]3C2)c1 | > 25 µM (inactive) | –
Cc1ccc(C)c(NC(=O)Cn2cc(C(=O)C3CC3)c3ccccc32)c1 | > 25 µM (inactive) | –
COc1ccc(OC)c(-c2cn3ccn(-c4ccc(F)c(Cl)c4)c(=O)c3n2)c1 | > 25 µM (inactive) | –
CC(C)=CCOC(C)(C)[C@H]1OC2CC[C@@]3(C)C(CCC4Cc5c([nH]c6ccccc56)[C@@]43C)C23OC3[C@@H]1O (stereo partly drawn) | > 25 µM (inactive) | –
Nc1c(-c2nc(-c3ccccc3Cl)no2)nnn1-c1ccc(Cl)cc1 | > 25 µM (inactive) | –
COC(=O)C1(Cc2ccc(O)cc2)OC(=O)C(O)=C1c1ccc(O)cc1 (stereo not drawn) | – | 4.72
Cc1ccc2c(c1)N(C)C(=O)c1cc(NC(=O)c3ccc(F)cc3)ccc1O2 | > 25 µM (inactive) | –
O=C(Cn1nc2c3c4c(sc3ncn2c1=O)CCCCC4)Nc1ccc(Cl)cc1F | > 25 µM (inactive) | –
Cc1ccc(-n2ccn3c(CCC(=O)NCc4ccc(F)cc4)nnc3c2=O)cc1C | > 25 µM (inactive) | –
CCOc1ccc(NS(=O)(=O)c2ccc(NC(=O)Nc3ccccc3)cc2)cc1 | > 25 µM (inactive) | –
CCCCCCCCCCCC1CC(=O)NC(CC(N)=O)C(=O)NC(Cc2ccc(O)cc2)C(=O)NC(CC(N)=O)C(=O)NC(CCC(N)=O)C(=O)N2CCCC2C(=O)NC(CC(N)=O)C(=O)NC(CO)C(=O)N1 (stereo not drawn) (cyclo([ξβ3hGly(undecyl)]NYNQPNS); configuration not given here) | > 25 µM (inactive) | –
O=[N+]([O-])c1ccc(S(=O)(=O)CC2CSc3nc4ccccc4n32)cc1 (stereo not drawn) | > 25 µM (inactive) | –

The next lines start with the values.

IC50 | pIC50 | Structure (SMILES)
> 25 µM (inactive) | – | CCc1cccc(CC)c1NC(=O)COC(=O)c1cc2cccc(OC)c2oc1=O
> 25 µM (inactive) | – | O=C(Cn1c(=O)c2ccccc2c2ccccc21)Nc1ccc2c(c1)OCO2
> 25 µM (inactive) | – | CCOc1ccc(-n2ccnc(SCC(=O)Nc3ccccc3F)c2=O)cc1
> 25 µM (inactive) | – | O=C(CN1CC(=O)c2ccccc2S1(=O)=O)Nc1ccccc1
> 25 µM (inactive) | – | O=C(CSc1nnc(C2CC2)n1-c1ccccc1)c1ccc(F)c(F)c1
– | 4.74 | CSc1ncccc1C(=O)NC1(O)C(=O)c2ccccc2C1=O
> 25 µM (inactive) | – | CCOc1ccc(NC(=O)Cn2c(=O)n(CCCCCC(=O)NCc3ccc(F)cc3)c(=O)c3sccc32)cc1
> 25 µM (inactive) | – | Cc1ccc(-n2nc3c(c2NC(=O)c2ccc(F)c(F)c2)CS(=O)(=O)C3)cc1
> 25 µM (inactive) | – | Cn1c(=O)c2c3c(cnc2n(C)c1=O)C(=O)CC(c1ccccc1)C3 (stereo not drawn)
> 25 µM (inactive) | – | Cc1ccc(N2CC(c3nc4ccccc4n3CCOc3cccc(C)c3)CC2=O)cc1 (stereo not drawn)
> 25 µM (inactive) | – | Cc1ccccc1NC(=O)Cn1c(=O)n(-c2ccc(CC(=O)NCCc3ccccc3)cc2)c(=O)c2sccc21
> 25 µM (inactive) | – | O=S1(=O)CCN(CC2CCCO2)c2c(Oc3ccccc3)nc(F)c(Cl)c21 (stereo not drawn)
– | 4.90 | O=c1ccc(-c2cc3ccccc3o2)cn1Cc1ccccc1-c1ccccc1
> 25 µM (inactive) | – | Cc1cc(C)cc(NC(=O)C2C3C=CC4(O3)C2C(=O)N(C2CCCCC2)C4C(=O)NC2CCCCC2)c1 (stereo not drawn)
> 25 µM (inactive) | – | O=C(O)c1ccc(Cl)c(NC(=O)C2COc3ccccc3O2)c1 (stereo not drawn)
> 25 µM (inactive) | – | COc1ccc(-c2cnn(-c3ccc(NC(=O)Nc4cccc(C(F)(F)F)c4)cc3)c2)cc1

IC50 | pIC50 | Structure (SMILES)
> 25 µM (inactive) | – | O=C(C1CCCCC1)N1CCN(c2nc3c(F)cccc3s2)CC1
> 25 µM (inactive) | – | O=C(COc1ccc(N2CC(C(=O)NCc3ccc4c(c3)OCO4)CC2=O)cc1)Nc1ccc(Cl)cc1 (stereo not drawn)
> 25 µM (inactive) | – | O=C(NCc1ccco1)c1ccc(Cn2c(SCc3ccccc3)nc3ccncc32)cc1
> 25 µM (inactive) | – | Cc1ccc2c(c1)c(=O)c(C(=O)c1ccccc1)cn2CC(=O)Nc1ccccc1
> 25 µM (inactive) | – | Cc1sc(N)nc1-c1ccc(C(C)(C)C)cc1
> 25 µM (inactive) | – | COc1cccc(C(=O)N2CCc3nc(-c4ccc(F)cc4)ncc3C2)c1
> 25 µM (inactive) | – | Cc1nn(-c2ccc(F)cc2)c(C)c1S(=O)(=O)N1CCN(c2ncccn2)CC1
> 25 µM (inactive) | – | CCC1OC(O)(C(C)C(O)C(C)C2OC(=O)/C(C)=C/C(C)=CC(C)C(O)C(C)C/C(C)=C/C=C/C2OC)CC(OC(=O)/C=C/C(=O)NC2=C(O)CCC2=O)C1C (stereo not drawn)
> 25 µM (inactive) | – | CCC(C(=O)Nc1ncc2c(n1)CC(c1ccccc1)CC2=O)c1ccccc1 (stereo not drawn)
> 25 µM (inactive) | – | Cc1c(Cl)cccc1NC(=O)Cn1cc(C(=O)C2CC2)c2ccccc21
> 25 µM (inactive) | – | Cc1noc(C)c1CN1CCn2c1nc(-c1ccccc1)cc2=O
> 25 µM (inactive) | – | COc1ccccc1Nc1ncc(C(=O)NCCc2ccc(Cl)cc2)c2ccccc12
> 25 µM (inactive) | – | CCOc1ccc2c(c1)c(=O)c(C(=O)c1ccc(C)cc1)cn2CC(=O)Nc1ccc(C)cc1
> 25 µM (inactive) | – | Cc1ccc(Cn2nc(C)c(C(=O)N3CCCc4cc(C)ccc43)c2C)cc1
> 25 µM (inactive) | – | O=C(Cn1c(COc2ccccc2)nc2ccccc21)Nc1cc(Cl)cc(Cl)c1
> 25 µM (inactive) | – | O=C(Nc1ccccc1-c1nc2ccccc2[nH]1)c1sc2ccccc2c1Cl
